In brackets after ≈: the same amount, converted by molar mass.
Test system: not listed separately
Test: Terminal half life in Sprague-Dawley rat at 3 umol/kg, iv
Assay type: ADME, organism-based
Settings: in vivo, read-out: beta t1/2 (converted)

| half-life [min] | Structure (SMILES) |
| --- | --- |
| 36 | Cc1onc(-c2c(Cl)cccc2Cl)c1CC(=O)NCc1ccc(OCC(F)(F)F)nc1 |
| 84 | Cc1onc(-c2c(Cl)cccc2Cl)c1NC(=O)OCc1c(F)cccc1Cl |

Test system: Rattus norvegicus
Test: Dose normalized AUC in Sprague-Dawley rat at 3 umol/kg, iv
Assay type: ADME, organism-based
Settings: in vivo

| AUC/dose [kg·h/L] | Structure (SMILES) |
| --- | --- |
| 0.46 | Cc1onc(-c2c(Cl)cccc2Cl)c1CC(=O)NCc1ccc(OCC(F)(F)F)nc1 |
| 0.73 | Cc1onc(-c2c(Cl)cccc2Cl)c1NC(=O)OCc1c(F)cccc1Cl |

Test system: Rattus norvegicus
Test: Dose normalized AUC in Sprague-Dawley rat at 10 umol/kg, po
Assay type: ADME, organism-based
Settings: in vivo

| AUC/dose [kg·h/L] | Structure (SMILES) |
| --- | --- |
| 0.12 | Cc1onc(-c2c(Cl)cccc2Cl)c1CC(=O)NCc1ccc(OCC(F)(F)F)nc1 |
| 0.001 | Cc1onc(-c2c(Cl)cccc2Cl)c1NC(=O)OCc1c(F)cccc1Cl |

Biological target: Voltage-gated inwardly rectifying potassium channel KCNH2 (Homo sapiens, UniProt Q12809)
Sequence (Q12809 whole entry): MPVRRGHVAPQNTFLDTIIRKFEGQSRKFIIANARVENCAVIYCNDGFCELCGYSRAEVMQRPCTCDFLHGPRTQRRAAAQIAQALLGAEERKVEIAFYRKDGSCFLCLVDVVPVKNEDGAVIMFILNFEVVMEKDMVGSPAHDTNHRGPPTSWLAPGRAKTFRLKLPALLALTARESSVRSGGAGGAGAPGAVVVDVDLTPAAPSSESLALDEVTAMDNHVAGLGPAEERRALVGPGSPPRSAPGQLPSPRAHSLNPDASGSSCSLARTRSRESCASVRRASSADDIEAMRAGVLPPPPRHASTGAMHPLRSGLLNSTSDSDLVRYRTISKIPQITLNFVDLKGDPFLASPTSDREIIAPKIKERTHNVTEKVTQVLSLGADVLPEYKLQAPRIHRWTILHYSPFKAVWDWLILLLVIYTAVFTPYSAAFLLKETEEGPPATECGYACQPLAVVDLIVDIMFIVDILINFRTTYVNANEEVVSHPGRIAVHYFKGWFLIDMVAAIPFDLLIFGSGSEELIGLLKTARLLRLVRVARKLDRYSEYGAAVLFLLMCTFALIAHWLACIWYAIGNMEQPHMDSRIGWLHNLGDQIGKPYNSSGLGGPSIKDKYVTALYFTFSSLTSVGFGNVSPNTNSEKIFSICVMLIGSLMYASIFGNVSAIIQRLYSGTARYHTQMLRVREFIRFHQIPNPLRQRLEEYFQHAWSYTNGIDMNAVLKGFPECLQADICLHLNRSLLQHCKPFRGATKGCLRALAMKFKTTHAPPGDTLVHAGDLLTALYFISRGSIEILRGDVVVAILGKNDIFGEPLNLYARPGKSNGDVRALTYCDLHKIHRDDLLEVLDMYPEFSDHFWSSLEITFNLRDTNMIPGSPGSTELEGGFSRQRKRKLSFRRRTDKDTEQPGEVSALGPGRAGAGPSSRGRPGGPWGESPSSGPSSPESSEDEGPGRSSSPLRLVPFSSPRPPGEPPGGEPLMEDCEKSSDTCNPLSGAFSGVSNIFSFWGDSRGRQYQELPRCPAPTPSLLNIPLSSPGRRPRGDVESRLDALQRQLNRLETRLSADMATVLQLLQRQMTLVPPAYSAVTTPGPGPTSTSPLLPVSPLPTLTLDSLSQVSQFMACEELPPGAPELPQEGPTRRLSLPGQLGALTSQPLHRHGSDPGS
Test: Inhibition of human ERG
Settings: not given

| Structure (SMILES) | IC50 [nM] |
| --- | --- |
| Cc1onc(-c2c(Cl)cccc2Cl)c1CC(=O)NCc1ccc(OCC(F)(F)F)nc1 | > 26300 |
| Cc1onc(-c2c(Cl)cccc2Cl)c1NC(=O)OCc1c(F)cccc1Cl | > 26300 |

Test system: not listed separately
Test: Tmax in Sprague-Dawley rat at 10 umol/kg, po
Assay type: ADME, organism-based
Settings: in vivo

| Tmax [min] | Structure (SMILES) |
| --- | --- |
| 18 | Cc1onc(-c2c(Cl)cccc2Cl)c1CC(=O)NCc1ccc(OCC(F)(F)F)nc1 |
| 19.8 | Cc1onc(-c2c(Cl)cccc2Cl)c1NC(=O)OCc1c(F)cccc1Cl |

Test system: not listed separately
Test: Cmax in Sprague-Dawley rat at 10 umol/kg, po
Assay type: ADME, organism-based
Set-up: dose 10 umol/kg, route oral
Settings: in vivo

| Cmax [nM] | Structure (SMILES) |
| --- | --- |
| 400 | Cc1onc(-c2c(Cl)cccc2Cl)c1CC(=O)NCc1ccc(OCC(F)(F)F)nc1 |
| 7 | Cc1onc(-c2c(Cl)cccc2Cl)c1NC(=O)OCc1c(F)cccc1Cl |

Test system: not listed separately
Test: Intrinsic clearance in human liver microsomes
Assay type: ADME, Microsome
Settings: not given

| microsomal CLint [µL/min/mg] | Structure (SMILES) |
| --- | --- |
| 116 | Cc1onc(-c2c(Cl)cccc2Cl)c1CC(=O)NCc1ccc(OCC(F)(F)F)nc1 |

Test system: not listed separately
Test: Intrinsic clearance in rat liver microsomes
Assay type: ADME, Microsome
Settings: not given

| microsomal CLint [µL/min/mg] | Structure (SMILES) |
| --- | --- |
| 64 | Cc1onc(-c2c(Cl)cccc2Cl)c1CC(=O)NCc1ccc(OCC(F)(F)F)nc1 |

Biological target: Sodium channel protein type 5 subunit alpha (Homo sapiens, UniProt Q14524)
Sequence (Q14524 whole entry): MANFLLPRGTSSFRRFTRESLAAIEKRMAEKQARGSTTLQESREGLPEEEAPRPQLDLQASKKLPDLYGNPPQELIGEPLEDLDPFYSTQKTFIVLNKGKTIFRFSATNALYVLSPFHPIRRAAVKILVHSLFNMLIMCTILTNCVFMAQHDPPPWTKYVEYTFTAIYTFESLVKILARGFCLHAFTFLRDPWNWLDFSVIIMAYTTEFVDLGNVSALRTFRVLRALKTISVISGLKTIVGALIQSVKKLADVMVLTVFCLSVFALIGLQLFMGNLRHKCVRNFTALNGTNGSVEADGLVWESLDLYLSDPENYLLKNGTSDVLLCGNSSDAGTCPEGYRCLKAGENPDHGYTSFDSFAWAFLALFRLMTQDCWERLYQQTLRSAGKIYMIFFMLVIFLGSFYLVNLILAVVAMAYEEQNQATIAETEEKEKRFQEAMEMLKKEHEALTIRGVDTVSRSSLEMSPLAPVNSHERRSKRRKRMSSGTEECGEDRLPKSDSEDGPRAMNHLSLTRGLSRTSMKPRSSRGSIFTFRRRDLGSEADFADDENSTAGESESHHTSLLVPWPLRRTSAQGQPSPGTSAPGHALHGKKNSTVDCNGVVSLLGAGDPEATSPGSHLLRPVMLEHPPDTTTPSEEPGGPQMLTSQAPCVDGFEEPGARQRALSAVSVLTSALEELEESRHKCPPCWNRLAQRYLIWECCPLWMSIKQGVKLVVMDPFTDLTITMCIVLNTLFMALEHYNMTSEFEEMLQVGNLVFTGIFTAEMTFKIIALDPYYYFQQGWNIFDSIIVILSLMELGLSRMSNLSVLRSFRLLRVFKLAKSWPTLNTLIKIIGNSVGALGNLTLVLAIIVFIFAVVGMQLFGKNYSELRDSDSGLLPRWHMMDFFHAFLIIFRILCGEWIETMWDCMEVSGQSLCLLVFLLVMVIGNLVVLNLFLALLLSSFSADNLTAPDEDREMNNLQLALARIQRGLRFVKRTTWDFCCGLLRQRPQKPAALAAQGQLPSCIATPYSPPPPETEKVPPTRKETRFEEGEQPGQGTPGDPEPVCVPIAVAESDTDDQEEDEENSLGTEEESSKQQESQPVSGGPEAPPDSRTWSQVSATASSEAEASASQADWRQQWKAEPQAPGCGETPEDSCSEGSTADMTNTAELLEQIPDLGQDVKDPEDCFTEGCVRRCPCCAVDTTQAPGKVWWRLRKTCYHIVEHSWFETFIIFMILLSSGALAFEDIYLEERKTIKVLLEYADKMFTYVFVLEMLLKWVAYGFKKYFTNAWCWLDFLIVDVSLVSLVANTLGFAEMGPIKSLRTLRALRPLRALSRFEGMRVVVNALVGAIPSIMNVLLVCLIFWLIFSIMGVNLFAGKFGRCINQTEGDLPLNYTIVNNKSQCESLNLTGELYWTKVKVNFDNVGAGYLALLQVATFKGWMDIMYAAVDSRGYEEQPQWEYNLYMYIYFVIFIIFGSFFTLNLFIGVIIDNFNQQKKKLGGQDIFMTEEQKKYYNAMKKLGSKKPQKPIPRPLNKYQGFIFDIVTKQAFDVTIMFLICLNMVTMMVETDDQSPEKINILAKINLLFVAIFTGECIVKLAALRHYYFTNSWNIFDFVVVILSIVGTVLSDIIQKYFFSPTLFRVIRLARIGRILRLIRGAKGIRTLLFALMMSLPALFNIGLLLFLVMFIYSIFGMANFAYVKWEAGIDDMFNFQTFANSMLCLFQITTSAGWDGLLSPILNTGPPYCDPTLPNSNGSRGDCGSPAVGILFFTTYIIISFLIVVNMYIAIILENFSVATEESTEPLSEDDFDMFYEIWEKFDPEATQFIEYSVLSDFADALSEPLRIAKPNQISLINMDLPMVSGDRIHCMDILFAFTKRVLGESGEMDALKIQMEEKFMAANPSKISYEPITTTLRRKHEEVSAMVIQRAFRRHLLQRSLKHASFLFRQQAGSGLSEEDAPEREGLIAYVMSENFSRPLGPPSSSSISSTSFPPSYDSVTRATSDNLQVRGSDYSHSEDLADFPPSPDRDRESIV
Test: Inhibition of Nav1.5 by cell based whole-cell voltage clamp electrophysiology assay
Settings: not given

| Structure (SMILES) | IC50 [nM] |
| --- | --- |
| CCc1onc(-c2c(Cl)cccc2Cl)c1NC(=O)OCc1c(F)cccc1Cl | 7240 |
| COCc1onc(-c2c(Cl)cccc2Cl)c1NC(=O)OCc1ccccc1Cl | > 28200 |
| Cc1cccc(C)c1-c1noc(C)c1NC(=O)NCc1c(F)cccc1Cl | > 10500 |
| Cc1onc(-c2c(Cl)cccc2Cl)c1N(C)C(=O)NCc1ccc(OC2CCOCC2)nc1 | 5890 |
| Cc1onc(-c2ccccc2Cl)c1N(C)C(=O)NCc1ccc(OC2CCOCC2)nc1 | > 33100 |
| Cc1cccc(C)c1-c1noc(C)c1NC(=O)OCc1c(F)cccc1Cl | 7760 |
| Cc1onc(-c2c(Cl)cncc2Cl)c1NC(=O)NCc1ccc(OC(C)C)nc1 | > 33100 |
| Cc1onc(-c2c(Cl)cccc2Cl)c1NC(=O)OCc1ccc(OC2CCCC2)nc1 | 1350 |
| Cc1onc(-c2c(Cl)cccc2Cl)c1NC(=O)OCc1ccccc1Cl | 8710 |
| Cc1onc(-c2c(Cl)cccc2Cl)c1N(C)C(=O)OCc1c(F)cccc1Cl | > 33100 |
| Cc1cccc(C)c1-c1noc(C)c1NC(=O)NCc1ccc(-n2cccn2)cc1 | > 33100 |
| Cc1cccc(C)c1-c1noc(C)c1NC(=O)NCc1ccc(OC(C)C)nc1 | 20000 |
| Cc1onc(-c2c(Cl)cccc2Cl)c1CC(=O)NCc1ccc(OC(C)C)nc1 | 4680 |
| Cc1cccc(C)c1-c1noc(C)c1N(C)C(=O)NCc1ccc(OC2CCOCC2)nc1 | > 33100 |
| Cc1onc(-c2c(F)cccc2Cl)c1NC(=O)OCc1c(F)cccc1Cl | > 15800 |
| Cc1cccc(C)c1-c1noc(C)c1CC(=O)NCc1ccc(OCC(F)(F)F)nc1 | > 33100 |
| Cc1onc(-c2c(Cl)cccc2Cl)c1NC(=O)OCc1cc(Cl)ccc1Cl | 2630 |
| Cc1onc(-c2c(Cl)cccc2Cl)c1CC(=O)NCc1ccc(OCC(F)(F)F)nc1 | > 33100 |
| Cc1onc(-c2c(Cl)cccc2Cl)c1NC(=O)NCc1c(F)cccc1Cl | 8510 |
| Cc1onc(-c2c(Cl)cccc2Cl)c1NC(=O)OCc1c(F)cccc1Cl | 5500 |
| Cc1onc(-c2c(Cl)cccc2Cl)c1N(C)C(=O)OCc1ccc(OC(C)C)nc1 | > 28800 |
| Cc1cccc(C)c1-c1noc(C)c1CC(=O)NCc1cccc(OCCOCC(F)(F)F)n1 | 12000 |
| Cc1onc(-c2c(Cl)cccc2Cl)c1NC(=O)OCc1cccc(N(C)C)c1 | > 25700 |
| Cc1onc(-c2c(Cl)cccc2Cl)c1NC(=O)OCc1ccc(OC(C)C)nc1 | 8710 |
| Cc1onc(-c2c(Cl)cccc2Cl)c1NC(=O)NCc1ccc(-n2cccn2)cc1 | > 33100 |
| Cc1onc(-c2c(Cl)cccc2Cl)c1CC(=O)NCc1ccc(-n2cccn2)cc1 | > 33100 |

Test system: not listed separately
Test: Volume of distribution at steady state in Sprague-Dawley rat at 3 umol/kg, iv
Assay type: ADME, organism-based
Settings: in vivo, read-out: Vdss

| Vd [L/kg] | Structure (SMILES) |
| --- | --- |
| 1.6 | Cc1onc(-c2c(Cl)cccc2Cl)c1CC(=O)NCc1ccc(OCC(F)(F)F)nc1 |
| 3 | Cc1onc(-c2c(Cl)cccc2Cl)c1NC(=O)OCc1c(F)cccc1Cl |

Test system: not listed separately
Test: Clearance in Sprague-Dawley rat at 3 umol/kg, iv
Assay type: ADME, organism-based
Settings: in vivo

| clearance [mL/min/kg] | Structure (SMILES) |
| --- | --- |
| 36 | Cc1onc(-c2c(Cl)cccc2Cl)c1CC(=O)NCc1ccc(OCC(F)(F)F)nc1 |
| 45 | Cc1onc(-c2c(Cl)cccc2Cl)c1NC(=O)OCc1c(F)cccc1Cl |

Test system: not listed separately
Test: Solubility of the compound
Assay type: physicochemical
Settings: not given

| solubility [µM] | Structure (SMILES) |
| --- | --- |
| 36 (≈ 17.1 µg/mL) | Cc1onc(-c2c(Cl)cccc2Cl)c1CC(=O)NCc1ccc(OCC(F)(F)F)nc1 |
| < 1 | Cc1onc(-c2c(Cl)cccc2Cl)c1NC(=O)OCc1c(F)cccc1Cl |

Test system: not listed separately
Test: Oral bioavailability in Sprague-Dawley rat at 10 umol/kg
Assay type: ADME, organism-based
Settings: in vivo

| bioavailability [%] | Structure (SMILES) |
| --- | --- |
| 19 | Cc1onc(-c2c(Cl)cccc2Cl)c1CC(=O)NCc1ccc(OCC(F)(F)F)nc1 |
| 0.3 | Cc1onc(-c2c(Cl)cccc2Cl)c1NC(=O)OCc1c(F)cccc1Cl |

Test system: not listed separately
Test: Half life in Sprague-Dawley rat at 10 umol/kg, po
Assay type: ADME, organism-based
Settings: in vivo

| half-life [min] | Structure (SMILES) |
| --- | --- |
| 228 | Cc1onc(-c2c(Cl)cccc2Cl)c1CC(=O)NCc1ccc(OCC(F)(F)F)nc1 |

Biological target: Sodium channel protein type 9 subunit alpha (Homo sapiens, UniProt Q15858)
Sequence (Q15858 whole entry): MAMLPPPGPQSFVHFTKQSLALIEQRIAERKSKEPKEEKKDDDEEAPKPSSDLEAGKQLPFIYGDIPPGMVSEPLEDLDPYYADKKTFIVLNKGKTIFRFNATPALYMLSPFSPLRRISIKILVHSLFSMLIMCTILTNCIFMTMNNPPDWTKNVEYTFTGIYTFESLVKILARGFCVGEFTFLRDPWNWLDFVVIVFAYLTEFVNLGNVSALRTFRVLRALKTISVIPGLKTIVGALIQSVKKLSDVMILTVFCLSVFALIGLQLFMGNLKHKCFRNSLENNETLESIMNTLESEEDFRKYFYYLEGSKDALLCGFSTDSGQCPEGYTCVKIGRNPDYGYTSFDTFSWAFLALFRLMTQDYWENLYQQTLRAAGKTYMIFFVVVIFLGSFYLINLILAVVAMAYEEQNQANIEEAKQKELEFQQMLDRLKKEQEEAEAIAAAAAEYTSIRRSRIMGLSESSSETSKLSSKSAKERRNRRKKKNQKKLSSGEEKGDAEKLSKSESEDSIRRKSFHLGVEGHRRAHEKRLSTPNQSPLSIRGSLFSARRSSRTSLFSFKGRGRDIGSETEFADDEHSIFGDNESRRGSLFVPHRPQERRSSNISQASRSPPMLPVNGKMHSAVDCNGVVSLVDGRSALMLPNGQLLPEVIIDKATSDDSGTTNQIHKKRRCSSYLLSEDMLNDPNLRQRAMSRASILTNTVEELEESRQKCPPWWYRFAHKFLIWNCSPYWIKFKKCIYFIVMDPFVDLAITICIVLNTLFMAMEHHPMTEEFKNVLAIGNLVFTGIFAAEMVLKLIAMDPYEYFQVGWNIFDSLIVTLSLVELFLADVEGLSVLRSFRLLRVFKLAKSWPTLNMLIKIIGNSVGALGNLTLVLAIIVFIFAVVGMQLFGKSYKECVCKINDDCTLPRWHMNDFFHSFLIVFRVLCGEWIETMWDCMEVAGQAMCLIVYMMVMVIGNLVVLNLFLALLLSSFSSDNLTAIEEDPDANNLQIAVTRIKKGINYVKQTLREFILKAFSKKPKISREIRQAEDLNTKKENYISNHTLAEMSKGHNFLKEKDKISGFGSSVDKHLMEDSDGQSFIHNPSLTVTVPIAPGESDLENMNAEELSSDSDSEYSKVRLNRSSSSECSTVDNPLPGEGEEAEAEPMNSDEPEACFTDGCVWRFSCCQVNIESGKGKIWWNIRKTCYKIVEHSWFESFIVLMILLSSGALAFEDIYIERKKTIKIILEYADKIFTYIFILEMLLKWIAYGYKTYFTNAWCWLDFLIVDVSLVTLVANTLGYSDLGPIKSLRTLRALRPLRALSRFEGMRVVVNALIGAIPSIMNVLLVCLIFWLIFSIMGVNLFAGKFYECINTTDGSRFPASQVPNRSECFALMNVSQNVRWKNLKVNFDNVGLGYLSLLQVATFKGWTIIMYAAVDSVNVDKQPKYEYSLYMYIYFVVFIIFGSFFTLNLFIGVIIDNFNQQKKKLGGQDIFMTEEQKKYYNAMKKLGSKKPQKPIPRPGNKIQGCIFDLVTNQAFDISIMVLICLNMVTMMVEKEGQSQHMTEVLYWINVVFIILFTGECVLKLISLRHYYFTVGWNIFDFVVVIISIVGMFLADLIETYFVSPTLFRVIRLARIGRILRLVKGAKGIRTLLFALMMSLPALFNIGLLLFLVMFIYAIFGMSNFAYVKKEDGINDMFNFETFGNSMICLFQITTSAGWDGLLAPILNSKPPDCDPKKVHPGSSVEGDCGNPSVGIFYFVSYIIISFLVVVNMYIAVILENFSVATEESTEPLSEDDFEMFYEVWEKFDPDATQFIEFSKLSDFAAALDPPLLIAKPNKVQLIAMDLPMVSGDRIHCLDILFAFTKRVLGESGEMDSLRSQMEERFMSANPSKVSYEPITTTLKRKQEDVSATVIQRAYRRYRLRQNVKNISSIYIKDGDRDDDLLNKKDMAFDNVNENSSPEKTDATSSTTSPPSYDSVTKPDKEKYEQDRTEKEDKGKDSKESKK
Test: Inhibition of Nav1.7 by cell based whole-cell voltage clamp electrophysiology assay
Settings: not given

| Structure (SMILES) | IC50 [nM] |
| --- | --- |
| COCc1onc(-c2c(Cl)cccc2Cl)c1NC(=O)OCc1ccccc1Cl | 331 |
| Cc1onc(-c2c(Cl)cccc2Cl)c1N(C)C(=O)NCc1ccc(OC2CCOCC2)nc1 | 170 |
| Cc1onc(-c2ccccc2Cl)c1N(C)C(=O)NCc1ccc(OC2CCOCC2)nc1 | 3630 |
| Cc1onc(-c2c(Cl)cncc2Cl)c1NC(=O)NCc1ccc(OC(C)C)nc1 | 12600 |
| Cc1onc(-c2c(Cl)cccc2Cl)c1N(C)C(=O)OCc1c(F)cccc1Cl | 302 |
| Cc1cccc(C)c1-c1noc(C)c1NC(=O)NCc1ccc(-n2cccn2)cc1 | 1170 |
| Cc1cccc(C)c1-c1noc(C)c1NC(=O)NCc1ccc(OC(C)C)nc1 | 209 |
| Cc1cccc(C)c1-c1noc(C)c1N(C)C(=O)NCc1ccc(OC2CCOCC2)nc1 | 4470 |
| Cc1cccc(C)c1-c1noc(C)c1CC(=O)NCc1ccc(OCC(F)(F)F)nc1 | 1230 |
| Cc1onc(-c2c(Cl)cccc2Cl)c1CC(=O)NCc1ccc(OCC(F)(F)F)nc1 | 178 |
| Cc1onc(-c2c(Cl)cccc2Cl)c1NC(=O)NCc1c(F)cccc1Cl | 162 |
| Cc1onc(-c2c(Cl)cccc2Cl)c1N(C)C(=O)OCc1ccc(OC(C)C)nc1 | 224 |
| O=C(Nc1conc1-c1c(Cl)cccc1Cl)OCc1c(F)cccc1Cl | 12600 |
| Cc1onc(-c2c(Cl)cccc2Cl)c1NC(=O)NCc1ccc(-n2cccn2)cc1 | 263 |
| Cc1onc(-c2c(Cl)cccc2Cl)c1CC(=O)NCc1ccc(-n2cccn2)cc1 | 851 |

Molecules with a lower IC50, results first:

| IC50 [nM] | Structure (SMILES) |
| --- | --- |
| 9.33 | CCc1onc(-c2c(Cl)cccc2Cl)c1NC(=O)OCc1c(F)cccc1Cl |
| 38 | Cc1cccc(C)c1-c1noc(C)c1NC(=O)NCc1c(F)cccc1Cl |
| 10.5 | Cc1cccc(C)c1-c1noc(C)c1NC(=O)OCc1c(F)cccc1Cl |
| 28.8 | Cc1onc(-c2c(Cl)cccc2Cl)c1NC(=O)OCc1ccc(OC2CCCC2)nc1 |
| 24 | Cc1onc(-c2c(Cl)cccc2Cl)c1NC(=O)OCc1ccccc1Cl |
| 126 | Cc1onc(-c2c(Cl)cccc2Cl)c1CC(=O)NCc1ccc(OC(C)C)nc1 |
| 72.4 | Cc1onc(-c2c(F)cccc2Cl)c1NC(=O)OCc1c(F)cccc1Cl |
| 138 | Cc1onc(-c2c(Cl)cccc2Cl)c1NC(=O)OCc1cc(Cl)ccc1Cl |
| 28.2 | Cc1onc(-c2c(Cl)cccc2Cl)c1NC(=O)OCc1c(F)cccc1Cl |
| 58.9 | Cc1cccc(C)c1-c1noc(C)c1CC(=O)NCc1cccc(OCCOCC(F)(F)F)n1 |
| 151 | Cc1onc(-c2c(Cl)cccc2Cl)c1NC(=O)OCc1cccc(N(C)C)c1 |
| 22.9 | Cc1onc(-c2c(Cl)cccc2Cl)c1NC(=O)OCc1ccc(OC(C)C)nc1 |

Reference: ChEMBL document CHEMBL1795246, “Phenyl isoxazole voltage-gated sodium channel blockers: structure and activity relationship” (Bioorg Med Chem Lett, 2011)
